System: gastric acid secretion
Experiment: modified standard pylorus-ligated secretory testing procedure in the rat
Format: in vivo, Sprague-Dawley rats
Settings: 50-100 mg/kg p.o., 1 hr. prior to ligation, 4 hrs. after ligation; for % Inhibition Gastric acid output: titration to pH 7, vs control 0.5% Methocel; for % Inhibition Volume of gastric secretion: vs control 0.5% Methocel
Source text: Such effect is evidenced using a modified standard pylorus-ligated secretory testing procedure in the rat. Sprague-Dawley rats, weighing 180-210 g and previously fasted for 24 hrs., were used. All compounds were given perorally as suspensions in 0.5% Methocel 1 hr. prior to pylorus ligation. Under light ether anesthesia, the rat stomach was ligated at the pylorus region. Four hrs. after ligation, the conscious rat was sacrificed by a chloroform overdose. The stomach was carefully excised and its content drained into a centrifuge tube. Samples were centrifuged to separate secretions from debris. Gastric fluid volume reading and determination of sample contamination, based on debris and sample color, was made. Titration was performed on a sample aliquot from 1 ml diluted to a volume of 5 ml using distilled water. The titrant used was 0.1 N NaOH. Total gastric acid output in the stomach was determined by titration to pH 7. A dose from 50-100 mg/kg p.o. of a compound was administered to a group of rats and its effect on the volume of gastric secretion and acid output compared to a control group receiving 0.5% Methocel p.o. The activity of each compound based on the degree of inhibition of gastric acid output is set forth in Table I.

| Compound | % Inhibition Gastric acid output [%] | % Inhibition Volume of gastric secretion [%] |
| --- | --- | --- |
| CNC(=O)ON=C1CCOc2ccc(OC)cc21 [IV, 2,3-Dihydro-6-methoxy-4H-1-benzopyran-4-one O-(Methylaminocarbonyl)oxime] | 45.5 | 35.3 |
| CNC(=O)ON=C1CCOc2ccccc21 [I, 2,3-Dihydro-4H-1-benzopyran-4-one O-(Methylcarbamoyl) oxime] | 60.4 | 34.1 |
| CCNC(=O)ON=C1CCOc2ccccc21 [III, 2,3-Dihydro-4-H-1-Benzopyran-4-one O-(Ethylaminocarbonyl)oxime] | 79.7 | 61.8 |
| CNC(=O)ON=C1CCOc2ccc(N)cc21 [VI, 6-Amino-2,3-dihydro-4H-1-benzopyran-4-one O(Methylaminocarbonyl)oxime] | 55.8 | 64.4 |
| CCNC(=O)ON=C1CCOc2ccc(OC)cc21 [II, 2,3-Dihydro-6-methoxy-4-H-1-benzopyran-4-one O-(Ethylcarbamoyl)-oxime] | 57.7 | 33.2 |
| NC(=O)ON=C1CCOc2ccccc21 [IX, 2,3-Dihydro-4H-1-benzopyran-4-one O-(Aminocarbonyl)oxime] | 77.9 | 60.5 |
| CCCNC(=O)ON=C1CCOc2ccccc21 [VIII, 2,3-Dihydro-4H-1-benzopyran-4-one 0-(1-Propylaminocarbonyl)oxime] | 88.1 | 73.1 |
| CNC(=O)ON=C1CCOc2ccc(Cl)cc21 [V, 6-Chloro-2,3-dihydro-4H-1-benzopyran-4-one O-(Methylaminocarbonyl)oxime] | 40.0 | 55.2 |
| C=CCNC(=O)ON=C1CCOc2ccccc21 [VII, 2,3-Dihydro-4H-1-benzopyran-4-one O-[(2-Propenyl)aminocarbonyl]oxime] | 89.9 | 76.2 |

From patent US4169097A, “2,3-Dihydro-4H-1-benzopyran-4-one O-carbamoyl oximes” (priority 1978, dated 1979)
